Five molecules from patent publication US10647680B2, “Urea compound, preparation method therefor and medical use thereof” (Ancureall Pharmaceutical (Shanghai) Co., Ltd., priority 2016, dated 2020) can be followed below.

Structures can show the parent of a compound that is named as a salt. Bounds are passed on as bounds.

The nature of series [1]: Stability test: intense light test (4500LX). Type of series: physicochemical. Particulars: 4500LX±500LX light for 10 days, HPLC. The procedure:
The test samples were placed into an integrated drug stability test chamber (YSEI) in an exposed way under 4500LX±500LX light for 10 days. Samples were taken on the 5th and 10th days and tested according to the drug stability test indices.
(§1) An appropriate amount of test samples was taken and dissolved in acetonitrile-water (1:1), and quantitatively diluted to a solution of about 0.3 mg/ml. 20 ul of solution was injected into a liquid chromatograph (Agilent 1260 Infinity), the chromatogram was then recorded and calculated according to the percentage area method. The mobile phase was a phosphate buffer and acetonitrile aqueous solution, and then a gradient elution was carried out.

The nature of series [2]: Stability test: high humidity test (90%). The class given is physicochemical. Particulars: 25° C., relative humidity 90%±5%, 10 days, HPLC. As for the experimental part: The test samples were placed into an integrated drug stability test chamber (YSEI) in an exposed way at 25° C. and relative humidity of 90%±5% for 10 days. Samples were taken on the 5th and 10th days and tested according to the drug stability test indices.
as §1

Series [3] in a line: Stability test: high temperature test (60° C.). The class given is physicochemical. As to conditions: exposed at 60° C. for 10 days, HPLC. As for the experimental part: The test samples were placed into an integrated drug stability test chamber (YSEI) in an exposed way at 60° C. for 10 days. Samples were taken on the 5th and 10th days and tested according to the drug stability test indices.
as §1

The next series is described as follows: Solubility test. Type of series: physicochemical. As to conditions: in water at 25° C.±2° C. The procedure:
The fine powder of the test sample was weighed into an appropriate amount of water at 25° C.±2° C. and shaken vigorously for 30 seconds every 5 minutes so that it was fully dissolved within 30 minutes. If no visible solute particles were observed, it was considered completely dissolved. “Readily soluble” means that 1 g of the test sample could be dissolved in 1-10 ml of water; and “soluble” means that 1 g of the test sample could be dissolved in 10-30 ml of water; “slightly soluble” means that 1 g of the test sample could be dissolved in 30-100 ml of water; and “sparingly soluble” means that 1 g of the test sample could be dissolved in 100-1,000 ml of water; “nearly insoluble or insoluble” means that 1 g of the test sample could not be completely dissolved in 10,000 ml of water.

Series [4] has as its system OCI-AML3 (NPMc+ mutant type). Description: In vitro growth inhibition (GI50), OCI-AML3. The class given is cell-based. Particulars: Homo sapiens, OCI-AML-3; Cell lines of leukemia; read-out: GI 50 OCI- AML3 NPMc+.
Series [5] deals with KG-1 (expressing FGFR1OP2-FGFR1 fusion protein). The series can be described thus: In vitro growth inhibition (GI50), KG-1. The class given is cell-based. Particulars: Homo sapiens; Cell lines of leukemia; read-out: GI 50 KG-1 FGFR1OP 2-FGFR1.
The test system of a further series is U937 (FLT3 wild-type). Description: In vitro growth inhibition (GI50), U937. The class given is cell-based. Particulars: Homo sapiens, U-937; Cell lines of leukemia; read-out: GI 50 U937 FLT 3(WT).
The test system of series [6] is MV4-11 (FLT3 ITD+/+ mutant type). The series can be described thus: In vitro growth inhibition (GI50), MV4-11. The class given is cell-based, human. Particulars: Homo sapiens, MV4-11; Cell lines of leukemia; read-out: GI 50 MV4-11 FLT3 (ITD +/+).
For series [7], the system named is RAMOS (positive expression of Brutons tyrosine protein kinase). The series can be described thus: In vitro growth inhibition (GI50), RAMOS. Type of series: cell-based. Particulars: Homo sapiens, Cell lines of leukemia, read-out: GI 50 Ramos BTK.
The next series has as its system RS4; 11 (FLT3 wild type). Description: In vitro growth inhibition (GI50), RS4; 11. The class given is cell-based, human. Particulars: Homo sapiens, RS4-11; Cell lines of leukemia; read-out: GI 50 RS4: 11 FLT3 (WT).
The subject of another series is HL-60 (FLT3 wild type). Description: In vitro growth inhibition (GI50), HL-60. Particulars: Homo sapiens, Cell lines of leukemia, read-out: GI 50 HL60 FLT3 (WT). The class given is cell-based. The method in brief: (§2)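 Cells in RPMI1640 with 10% FBS, seeded at 5–10×10^4 cells/mL, exposed next day to compound at 5,000 nM down to 0.01 nM (2- or 10-fold dilutions, ≤1% solvent) for 3–5 days at 37 °C. CCK8 absorbance at 450 nm, growth rate relative to pre-treatment and solvent controls, GI50 from concentration–growth curve.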

In series [8] the test system is K562 (FLT3 negative expression, positive expression of BCR-ABL fusion protein). The series can be described thus: In vitro growth inhibition (GI50), K562. The class given is cell-based. As to conditions: Homo sapiens, Cell lines of leukemia, read-out: GI 50 K562 BCR-ABL.
In series [9] the test system is MOLM-13 (FLT3 ITD+/− mutant type). Description: In vitro growth inhibition (GI50), MOLM-13. As to conditions: Homo sapiens, MOLM-13; Cell lines of leukemia; read-out: GI 50 MOLM-13 FLT3 (ITD+/−). Type of series: cell-based, human.
Series [10] has as its system Kasumi-1 (c-Kit N822K mutant type). Description: In vitro growth inhibition (GI50), Kasumi-1. The class given is cell-based. Particulars: Homo sapiens, Cell lines of leukemia, read-out: GI 50 Kasumi-1 Kit (N822K). The method in brief: as §2
In another series the test system is rat plasma protein. Description: Binding rate to plasma protein of rats (dialysis method). Type of series: in vitro ADME. Particulars: dialysis, 4 h, 37° C.; test substance 2 uM, positive control 1 uM. As for the experimental part: The binding rate of compound 77 of the present invention to plasma protein at a rat plasma concentration of 2 uM was evaluated by dialysis method.
Procedure: The DMSO stock solution of compound 77 (10 mM) or the positive control propranolol (USP) was added to 500 uL of blank plasma. The final concentration of test substance in the plasma was 2 uM, and the final concentration of the positive control was 1 uM, in triplicate. 300 uL of prepared plasma samples was added to the plasma chamber, and 500 uL of dialysis buffer was added to the buffer chamber (phosphate buffer solution PBS contained 100 mM sodium phosphate and 150 mM sodium chloride, PH 7.2), sealed, and incubated for 4 h while shaking at 100 rpm, 37° C. After incubation, 50 uL sample was taken from the plasma chamber and buffer chamber, and 50 uL of PBS was added to plasma chamber samples, and 50 uL of blank plasma was added to the buffer chamber samples. Immediately, 3-fold methanol solution containing internal standard was added, to precipitate plasma protein. After centrifugation, the supernatant was taken for LC/MS/MS analysis. The plasma protein binding rate was calculated according to the following formula: % free state=(peak area ratio in the buffer chamber/the peak area ratio in the plasma chamber)×%, % binding state=100%−% free state.

On to `CC(C)(C)c1cc(NC(=O)Nc2ccc(-n3cnc4cc(OCCN5CCOCC5)ccc43)cc2)no1` [Compound 16 Hydrochloride, 1-(5-tert-butyl-isoxazol-3-yl)-3-{4-[5-(2-morpholin-4-yl-ethoxyl)-benzimidazol-1-yl]-phenyl}-urea], for which, in [1], the “Lighting (4500 LX)” value is “stable”. Further, the “High Humidity (90%)” value in series [2] is listed as “stable”. The “High temperature (60° C.)” value in [3] is reported as “stable”. Moreover, in the series “Solubility test” (listed as 16 Hydrochloride), the Solubility entry is on record as “soluble (“soluble” means that 1 g of the test sample could be dissolved in 10-30 ml of water)”.

As for `COc1ccc2c(c1)ncn2-c1ccc(NC(=O)Nc2cc(C(C)(C)C)n[nH]2)cc1` [Compound 71 Mesylate, 1-(5-tert-butyl-2H-pyrazol-3-yl)-3-[4-(5-methoxyl-benzimidazol-1-yl)-phenyl]-urea], in series [1], the “Lighting (4500 LX)” value was “stable”. In [2], the “High Humidity (90%)” value was “stable”. For the same molecule, the “High temperature (60° C.)” value in [3] was “stable”. Further, the Solubility result in “Solubility test” (listed as 71 Mesylate) is given as “soluble (“soluble” means that 1 g of the test sample could be dissolved in 10-30 ml of water)”.

For `CC(C)(C)c1cc(N)n(C(=O)Nc2ccc(-n3cnc4cc(OCCO)ccc43)cc2)n1` [Compound 121, 5-amino-3-tert-butyl-pyrazol-1-carboxylic acid {4-[5-(2-hydroxy-ethoxyl)-benzimidazol-1-yl]-phenyl}-amide], the GI50 is more than 1 µM in [4]; more than 1 µM in series [5]; more than 1 µM with U937 (FLT3 wild-type); 0.1 to 1 µM in series [6]; more than 1 µM in [7]; more than 1 µM in the series with RS4; 11 (FLT3 wild type). Moreover, the GI50 in the series on HL-60 (FLT3 wild type) is more than 1 µM; in series [8], more than 1 µM; in series [9], 0.1 to 1 µM; in series [10] it was more than 1 µM. The Solubility result in “Solubility test” (listed as 121 Free base) was “insoluble (“nearly insoluble or insoluble” means that 1 g of the test sample could not be completely dissolved in 10,000 ml of water)”.

In the case of `COc1cc2ncn(-c3ccc(NC(=O)n4nc(C(C)(C)C)cc4N)cc3)c2cc1OC` [Compound 129, 5-amino-3-tert-butyl-pyrazol-1-carboxylic acid [4-(5,6-dimethoxyl-benzimidazol-1-yl)-phenyl]-amide], the GI50 in series [4] was more than 1 µM; in series [5] it was more than 1 µM; with U937 (FLT3 wild-type), more than 1 µM; in [6], 0.001 to 0.01 µM; in series [7], more than 1 µM; in the series on RS4; 11 (FLT3 wild type) it was more than 1 µM. The GI50 with HL-60 (FLT3 wild type) is more than 1 µM; in series [8] it was more than 1 µM; in series [9], 0.001 to 0.01 µM; in series [10], more than 1 µM. In addition, in “Solubility test” (listed as 129 Free base), the Solubility result is reported as “insoluble (“nearly insoluble or insoluble” means that 1 g of the test sample could not be completely dissolved in 10,000 ml of water)”.

Regarding `CC(C)NCC(O)COc1cccc2ccccc12` (stereo not shown) [propranolol, reference compound], the “binding rate to the rat plasma protein” value in the series with rat plasma protein was determined as 90.11%.
